Our source for the inhibition values is PubChem BioAssay AID463149 (The Scripps Research Institute Molecular Screening Center, 2010).

Common to all, as to experiment: PME-1 inhibition and serine hydrolase selectivity by ABPP – cell lysate, gel-based competitive ABPP, fluorescence, powder samples, selectivity assay, late-stage follow-up (AID 463149);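 further: 0% = DMSO-treated band intensity and 100% = blank gel background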
For one experiment, the system named is Anti-Target ABHD10. Particulars: HeLa soluble proteome, FP-Rh fluorescence, stronger effect = higher value.
Experiment [1] concerns the target Fatty acid synthase (Homo sapiens) (UniProt P49327). Particulars: HeLa soluble proteome, FP-Rh fluorescence, measured here: Anti-Target FAS, stronger effect = higher value.
A further experiment concerns Anti-Target CES. The following applies: HeLa soluble proteome, FP-Rh fluorescence, measured here: Anti-Target CES, stronger effect = higher value.
Experiment [2] addresses Protein phosphatase methylesterase 1 (Homo sapiens) (UniProt Q9Y570). Particulars: HeLa soluble proteome, FP-Rh fluorescence, stronger effect = higher value.
For experiment [3], the target named is Acylamino-acid-releasing enzyme (Homo sapiens) (UniProt P13798). Particulars: HeLa soluble proteome, FP-Rh fluorescence, measured here: Anti-Target APEH, stronger effect = higher value.
Chain of Acylamino-acid-releasing enzyme (Homo sapiens) (P13798 whole entry, looked up): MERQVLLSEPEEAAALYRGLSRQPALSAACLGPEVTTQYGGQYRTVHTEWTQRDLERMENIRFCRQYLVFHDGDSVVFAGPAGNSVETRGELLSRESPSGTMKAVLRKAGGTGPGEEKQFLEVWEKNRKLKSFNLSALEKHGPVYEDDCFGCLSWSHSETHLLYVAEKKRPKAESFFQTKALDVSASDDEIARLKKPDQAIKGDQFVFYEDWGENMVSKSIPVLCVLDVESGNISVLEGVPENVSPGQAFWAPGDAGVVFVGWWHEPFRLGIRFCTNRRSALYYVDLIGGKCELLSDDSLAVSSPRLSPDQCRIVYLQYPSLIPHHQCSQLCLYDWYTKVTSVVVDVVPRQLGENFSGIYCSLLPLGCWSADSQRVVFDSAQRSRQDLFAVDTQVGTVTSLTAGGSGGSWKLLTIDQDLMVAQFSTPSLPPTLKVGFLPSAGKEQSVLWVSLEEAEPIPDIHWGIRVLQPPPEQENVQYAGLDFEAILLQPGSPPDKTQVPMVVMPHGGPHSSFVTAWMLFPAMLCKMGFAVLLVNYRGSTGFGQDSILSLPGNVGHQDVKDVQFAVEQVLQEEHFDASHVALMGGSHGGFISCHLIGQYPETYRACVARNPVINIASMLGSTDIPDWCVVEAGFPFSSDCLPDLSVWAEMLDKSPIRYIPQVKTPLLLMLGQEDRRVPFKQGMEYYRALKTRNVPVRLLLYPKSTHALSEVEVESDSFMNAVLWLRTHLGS
A further experiment has as its system Anti-Target PREP. Particulars: HeLa soluble proteome, FP-Rh fluorescence, measured here: Anti-Target PREP, stronger effect = higher value.
[4] abbreviates: measured here: Anti-Target ABHD10, at 1 µM.
[5] abbreviates: measured here: Anti-Target ABHD10, at 20 µM.

Molecules are shown by their SMILES.

Chain of Protein phosphatase methylesterase 1 (Homo sapiens) (Q9Y570 whole entry, looked up): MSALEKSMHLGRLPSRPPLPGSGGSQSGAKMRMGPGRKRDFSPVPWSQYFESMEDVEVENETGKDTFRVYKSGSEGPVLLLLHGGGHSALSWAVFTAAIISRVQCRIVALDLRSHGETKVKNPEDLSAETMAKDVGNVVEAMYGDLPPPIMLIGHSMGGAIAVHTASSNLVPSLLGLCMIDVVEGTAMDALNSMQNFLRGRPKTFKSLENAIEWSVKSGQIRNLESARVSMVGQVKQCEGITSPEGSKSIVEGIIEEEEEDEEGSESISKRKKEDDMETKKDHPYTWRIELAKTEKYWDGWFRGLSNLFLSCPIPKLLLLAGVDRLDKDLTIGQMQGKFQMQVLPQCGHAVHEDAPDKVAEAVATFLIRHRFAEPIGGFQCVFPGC
Chain of Fatty acid synthase (Homo sapiens) (P49327 whole entry, looked up): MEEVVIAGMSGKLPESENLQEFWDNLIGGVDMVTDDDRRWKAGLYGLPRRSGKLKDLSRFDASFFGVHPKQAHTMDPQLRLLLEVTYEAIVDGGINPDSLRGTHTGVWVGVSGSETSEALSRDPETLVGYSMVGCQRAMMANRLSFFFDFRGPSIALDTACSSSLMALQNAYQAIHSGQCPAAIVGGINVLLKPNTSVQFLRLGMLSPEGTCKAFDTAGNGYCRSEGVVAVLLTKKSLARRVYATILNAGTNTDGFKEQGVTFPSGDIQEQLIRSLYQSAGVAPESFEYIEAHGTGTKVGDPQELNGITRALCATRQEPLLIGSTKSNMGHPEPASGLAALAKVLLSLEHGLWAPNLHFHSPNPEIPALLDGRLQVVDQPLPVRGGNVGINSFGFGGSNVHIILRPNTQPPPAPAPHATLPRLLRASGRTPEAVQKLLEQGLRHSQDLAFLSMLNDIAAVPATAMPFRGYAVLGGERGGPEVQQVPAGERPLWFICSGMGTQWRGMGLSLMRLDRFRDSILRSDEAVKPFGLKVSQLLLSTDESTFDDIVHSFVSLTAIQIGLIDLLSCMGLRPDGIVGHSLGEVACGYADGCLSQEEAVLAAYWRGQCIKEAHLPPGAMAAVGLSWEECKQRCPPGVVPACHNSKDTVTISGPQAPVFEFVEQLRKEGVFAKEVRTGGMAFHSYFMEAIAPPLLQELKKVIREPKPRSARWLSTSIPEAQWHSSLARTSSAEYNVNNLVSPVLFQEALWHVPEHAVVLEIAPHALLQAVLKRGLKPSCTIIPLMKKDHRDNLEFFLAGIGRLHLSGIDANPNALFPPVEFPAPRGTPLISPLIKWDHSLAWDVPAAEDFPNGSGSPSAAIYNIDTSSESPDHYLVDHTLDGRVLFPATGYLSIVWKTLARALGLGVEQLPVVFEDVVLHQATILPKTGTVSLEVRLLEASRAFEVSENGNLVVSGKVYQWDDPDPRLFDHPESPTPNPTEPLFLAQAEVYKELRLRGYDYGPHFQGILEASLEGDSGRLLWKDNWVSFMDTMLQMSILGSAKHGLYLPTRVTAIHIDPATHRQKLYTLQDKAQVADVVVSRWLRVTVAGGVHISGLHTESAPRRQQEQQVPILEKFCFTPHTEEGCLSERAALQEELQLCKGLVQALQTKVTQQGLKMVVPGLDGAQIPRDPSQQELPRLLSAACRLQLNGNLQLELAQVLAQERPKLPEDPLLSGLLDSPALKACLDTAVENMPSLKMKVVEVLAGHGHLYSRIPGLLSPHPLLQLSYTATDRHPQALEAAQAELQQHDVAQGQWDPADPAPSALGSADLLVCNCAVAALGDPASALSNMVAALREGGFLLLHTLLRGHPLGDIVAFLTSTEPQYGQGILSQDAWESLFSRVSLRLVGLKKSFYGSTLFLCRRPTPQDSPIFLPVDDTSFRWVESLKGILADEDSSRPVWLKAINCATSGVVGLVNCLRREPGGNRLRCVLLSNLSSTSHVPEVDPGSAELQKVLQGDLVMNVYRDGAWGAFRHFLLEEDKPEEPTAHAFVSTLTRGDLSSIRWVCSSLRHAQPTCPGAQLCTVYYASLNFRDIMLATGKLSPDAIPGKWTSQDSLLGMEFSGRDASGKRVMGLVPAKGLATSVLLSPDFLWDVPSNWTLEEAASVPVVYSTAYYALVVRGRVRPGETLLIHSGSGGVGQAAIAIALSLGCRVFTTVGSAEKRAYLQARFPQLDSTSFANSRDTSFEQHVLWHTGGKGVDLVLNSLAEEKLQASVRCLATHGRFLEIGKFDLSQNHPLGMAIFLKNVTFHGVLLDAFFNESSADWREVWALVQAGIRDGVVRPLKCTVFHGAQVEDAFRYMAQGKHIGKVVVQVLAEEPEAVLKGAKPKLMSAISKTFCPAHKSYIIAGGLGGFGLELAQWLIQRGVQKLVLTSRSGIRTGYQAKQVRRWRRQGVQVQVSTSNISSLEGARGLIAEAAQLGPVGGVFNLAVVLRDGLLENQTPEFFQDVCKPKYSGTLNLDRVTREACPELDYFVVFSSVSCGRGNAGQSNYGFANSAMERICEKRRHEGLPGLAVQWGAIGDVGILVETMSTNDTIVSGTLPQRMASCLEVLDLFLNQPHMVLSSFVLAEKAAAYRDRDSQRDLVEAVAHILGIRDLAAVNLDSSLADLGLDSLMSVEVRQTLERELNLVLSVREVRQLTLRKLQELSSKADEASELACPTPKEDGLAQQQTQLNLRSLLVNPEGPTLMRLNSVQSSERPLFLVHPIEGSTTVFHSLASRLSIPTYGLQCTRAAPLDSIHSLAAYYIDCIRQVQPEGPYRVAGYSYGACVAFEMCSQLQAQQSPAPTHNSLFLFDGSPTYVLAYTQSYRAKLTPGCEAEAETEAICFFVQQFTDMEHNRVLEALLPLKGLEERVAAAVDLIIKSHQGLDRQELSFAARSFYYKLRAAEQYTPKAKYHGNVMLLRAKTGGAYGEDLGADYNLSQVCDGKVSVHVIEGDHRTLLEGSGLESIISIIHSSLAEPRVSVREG

Consider `CCOC(=O)N1C(=O)[C@](CC)(c2ccccc2)N1C(=O)OCC`, for which the inhibition (usually the percentage by which the read-out fell short of the control) was 0% in the experiment with Anti-Target ABHD10 (setting [4]); 0% in the experiment on Anti-Target ABHD10 (setting [5]); 0% in experiment [1] (at 1 µM); more than 50% in experiment [1] (at 20 µM); more than 50% in the experiment on Anti-Target CES (at 1 µM); more than 50% with Anti-Target CES (at 20 µM). Moreover, the inhibition is 0% in experiment [2] (PME-1, inhibition, at 1 µM); 100% in experiment [2] (PME-1, inhibition, at 20 µM); 0% in experiment [3] (at 1 µM); 0% in experiment [3] (at 20 µM); 0% with Anti-Target PREP (at 1 µM); 0% in the experiment with Anti-Target PREP (at 20 µM).
For the molecule `CC[C@]1(c2ccccc2)C(=O)N(C(=O)OC)N1C(=O)OC`, the inhibition with Anti-Target ABHD10 (setting [4]) was 0%; with Anti-Target ABHD10 (setting [5]) it was 0%; in experiment [1] (at 1 µM), 0%; in experiment [1] (at 20 µM), 0%; in the experiment on Anti-Target CES (at 1 µM), more than 50%; with Anti-Target CES (at 20 µM) it was more than 50%. In addition, the inhibition came out at 75% in experiment [2] (PME-1, inhibition, at 1 µM); 100% in experiment [2] (PME-1, inhibition, at 20 µM); 0% in experiment [3] (at 1 µM); 0% in experiment [3] (at 20 µM); 0% in the experiment on Anti-Target PREP (at 1 µM); 0% with Anti-Target PREP (at 20 µM).
For the molecule `COC(=O)N1C(=O)[C@](Cc2ccccc2)(c2ccccc2)N1C(=O)OC`, the inhibition with Anti-Target ABHD10 (setting [4]) is 0%; with Anti-Target ABHD10 (setting [5]), 0%; in experiment [1] (at 1 µM), 0%; in experiment [1] (at 20 µM), more than 50%; in the experiment on Anti-Target CES (at 1 µM), more than 50%; with Anti-Target CES (at 20 µM) it was more than 50%. In addition, the inhibition is 75% in experiment [2] (PME-1, inhibition, at 1 µM); 100% in experiment [2] (PME-1, inhibition, at 20 µM); 0% in experiment [3] (at 1 µM); more than 50% in experiment [3] (at 20 µM); 0% in the experiment with Anti-Target PREP (at 1 µM); 0% in the experiment on Anti-Target PREP (at 20 µM).
Regarding `COC(=O)N1C(=O)[C@@](c2ccccc2)(C2CCCCC2)N1C(=O)OC`, the inhibition (with Anti-Target ABHD10 (setting [4]); in the experiment with Anti-Target ABHD10 (setting [5]); in experiment [1] (at 1 µM); in experiment [1] (at 20 µM); with Anti-Target CES (at 1 µM); in the experiment with Anti-Target CES (at 20 µM)) was 0% each time. Also, the inhibition in experiment [2] (PME-1, inhibition, at 1 µM) is 100%; in experiment [2] (PME-1, inhibition, at 20 µM), 100%; in experiment [3] (at 1 µM), 0%; in experiment [3] (at 20 µM), 0%; in the experiment with Anti-Target PREP (at 1 µM), 0%; with Anti-Target PREP (at 20 µM), 0%.
`COC(=O)N1C(=O)[C@@](c2ccccc2)(C2CCCC2)N1C(=O)OC`: the inhibition (with Anti-Target ABHD10 (setting [4]); in the experiment on Anti-Target ABHD10 (setting [5]); in experiment [1] (at 1 µM); in experiment [1] (at 20 µM); in the experiment with Anti-Target CES (at 1 µM); in the experiment with Anti-Target CES (at 20 µM)) was 0% each time. The inhibition is 50% in experiment [2] (PME-1, at 0.1 µM); 100% in experiment [2] (PME-1, inhibition, at 1 µM); 100% in experiment [2] (PME-1, inhibition, at 20 µM); 0% in experiment [3] (at 1 µM); 0% in experiment [3] (at 20 µM); 0% in the experiment with Anti-Target PREP (at 1 µM). The molecule further registered an inhibition with Anti-Target PREP (at 20 µM) of 0%.
For the molecule `COC(=O)N1C(=O)[C@](c2ccccc2)(C(C)C)N1C(=O)OC`, the inhibition (in the experiment on Anti-Target ABHD10 (setting [4]); in the experiment with Anti-Target ABHD10 (setting [5]); in experiment [1] (at 1 µM); in experiment [1] (at 20 µM); with Anti-Target CES (at 1 µM); in the experiment with Anti-Target CES (at 20 µM)) was 0% throughout. The inhibition in experiment [2] (PME-1, inhibition, at 1 µM) is 100%; in experiment [2] (PME-1, inhibition, at 20 µM), 100%; in experiment [3] (at 1 µM), 0%; in experiment [3] (at 20 µM), 0%; in the experiment with Anti-Target PREP (at 1 µM) it was 0%; in the experiment on Anti-Target PREP (at 20 µM), 0%.
With `CCOC(=O)N1C(=O)[C@](c2ccc(Cl)cc2)(C(C)C)N1C(=O)OCC`, the inhibition (in the experiment on Anti-Target ABHD10 (setting [4]); with Anti-Target ABHD10 (setting [5]); in experiment [1] (at 1 µM); in experiment [1] (at 20 µM); in the experiment on Anti-Target CES (at 1 µM); in the experiment on Anti-Target CES (at 20 µM)) was 0% in each case. In addition, the inhibition in experiment [2] (PME-1, inhibition, at 1 µM) worked out at 50%; in experiment [2] (PME-1, inhibition, at 20 µM) it was 100%; in experiment [3] (at 1 µM) it was 0%; in experiment [3] (at 20 µM), 0%; in the experiment on Anti-Target PREP (at 1 µM) it was 0%; in the experiment with Anti-Target PREP (at 20 µM) it was 0%.
As to `CC[C@]1(c2cccc(C)c2)C(=O)N(C(=O)OC)N1C(=O)OC`, the inhibition in the experiment on Anti-Target ABHD10 (setting [4]) was 0%; in the experiment on Anti-Target ABHD10 (setting [5]), 0%; in experiment [1] (at 1 µM), 0%; in experiment [1] (at 20 µM) it was more than 50%; with Anti-Target CES (at 1 µM), more than 50%; with Anti-Target CES (at 20 µM) it was more than 50%. Further, the inhibition was 50% in experiment [2] (PME-1, inhibition, at 1 µM); 100% in experiment [2] (PME-1, inhibition, at 20 µM); 0% in experiment [3] (at 1 µM); 0% in experiment [3] (at 20 µM); 0% with Anti-Target PREP (at 1 µM); 0% with Anti-Target PREP (at 20 µM).
Turning to `COC(=O)N1C(=O)[C@](c2ccsc2)(C(C)C)N1C(=O)OC`, the inhibition (in the experiment on Anti-Target ABHD10 (setting [4]); with Anti-Target ABHD10 (setting [5]); in experiment [1] (at 1 µM); in experiment [1] (at 20 µM); in the experiment on Anti-Target CES (at 1 µM); in the experiment with Anti-Target CES (at 20 µM)) was 0% in each case. Moreover, the inhibition came out at 50% in experiment [2] (PME-1, inhibition, at 1 µM); 100% in experiment [2] (PME-1, inhibition, at 20 µM); 0% in experiment [3] (at 1 µM); 0% in experiment [3] (at 20 µM); 0% in the experiment on Anti-Target PREP (at 1 µM); 0% in the experiment on Anti-Target PREP (at 20 µM).
Regarding `COC(=O)N1C(=O)[C@@](c2ccc(OC)cc2)(C(C)C)N1C(=O)OC`, the inhibition with Anti-Target ABHD10 (setting [4]) was 0%; with Anti-Target ABHD10 (setting [5]), 0%; in experiment [1] (at 1 µM) it was 0%; in experiment [1] (at 20 µM), 0%; in the experiment with Anti-Target CES (at 1 µM) it was 0%; with Anti-Target CES (at 20 µM), more than 50%. Moreover, the inhibition amounted to 0% in experiment [2] (PME-1, inhibition, at 1 µM); 50% in experiment [2] (PME-1, inhibition, at 20 µM); 0% in experiment [3] (at 1 µM); 0% in experiment [3] (at 20 µM); 0% in the experiment with Anti-Target PREP (at 1 µM); 0% in the experiment on Anti-Target PREP (at 20 µM).
